Reference: patent publication US20040076974A1, “Liver necrosis predictive genes” (priority 2002, published 2004)
Where two headings read alike, the source gives them in different places.

Tested on: Sprague Dawley rats
Protocol: Sprague Dawley rats Crl:CD from Charles River, Raleigh, N.C. were divided into treated rats that receive a specific concentration of the compound (see Table 1) and. control rats that only received the vehicle in which the compound is mixed (e.g., saline).
At specified timepoints (6 h, 24 h and 72 h) after administration (intraperitoneal route) of the compound, a set number of rats (usually 3 control and 3 treated) were euthanized and tissues collected. Each, rat was heavily sedated with an overdose of CO2 by inhalation and a maximum amount of blood drawn. Exsanguination of the rat by this drawing of blood kills the rat. The method of collecting the tissues is very important and ensures preserving the quality of the mRNA in the tissues. The body of the rat was then opened up and prosectors rapidly removed the tissues (including) and immediately placed them into liquid nitrogen. […] The organs/tissues were then packaged into well-labeled plastic freezer quality bags and stored at −80 degrees until needed for isolation of the mRNA from a portion of the organ/tissue sample.
Histopathology scores for each animal (assigned on a compound-dose basis as indicated in Table 1) were entered with gene expression data by using the GeneSpring™ ‘Drawn Gene’ function. Correlations between the histopathology scores and gene expression were conducted with the distance measures listed below:
Toxicity classifications were entered for training and test set as a parameter column. Toxicity, as defined by observation of necrosis in the at 72 hours after treatment, was entered as a “yes” or “no” for each animal in a compound-dose group. Additionally, a parameter column for random histopathology classification was designated. This was done by randomly assigning the same number of “yes” and “no” calls to the individual animals.

[1] = Sprague Dawley, rat, in vivo, ip, 50 mg/kg, 72 h
[2] = Sprague Dawley, rat, in vivo, ip, 200 mg/kg, 72 h

Nc1nc(O)c2ncn(COC(CO)CO)c2n1 [gancyclovir]
Score (histopathology liver necrosis severity score) [1]: 1
Score (histopathology liver necrosis severity score) [2]: 1
Liver Toxicity Necrosis Classification (rat, in vivo): no
Liver Necrosis (rat, in vivo, ip, 50 mg/kg): no
Liver Necrosis (rat, in vivo, ip, 200 mg/kg): no

NC(=O)NO [hydroxyurea]
Score (histopathology liver necrosis severity score) (Sprague Dawley, rat, in vivo, ip, 250 mg/kg, 72 h): 1
Score (histopathology liver necrosis severity score) (Sprague Dawley, rat, in vivo, ip, 1000 mg/kg, 72 h): 1
Liver Toxicity Necrosis Classification (rat, in vivo): no
Liver Necrosis (rat, in vivo, ip, 250 mg/kg): no
Liver Necrosis (rat, in vivo, ip, 1000 mg/kg): no

NNC(=O)c1ccncc1 [isoniazid]
Score (histopathology liver necrosis severity score) [1]: 1
Score (histopathology liver necrosis severity score) [2]: 1
Liver Toxicity Necrosis Classification (rat, in vivo): no
Liver Necrosis (rat, in vivo, ip, 50 mg/kg): no
Liver Necrosis (rat, in vivo, ip, 200 mg/kg): no

CC(=O)N1CCN(c2ccc(OCC3COC(Cn4ccnc4)(c4ccc(Cl)cc4Cl)O3)cc2)CC1 (stereo not drawn) [ketoconazole]
Score (histopathology liver necrosis severity score) (Sprague Dawley, rat, in vivo, ip, 20 mg/kg, 72 h): 1
Score (histopathology liver necrosis severity score) (Sprague Dawley, rat, in vivo, ip, 80 mg/kg, 72 h): 1
Liver Toxicity Necrosis Classification (rat, in vivo): no
Liver Necrosis (rat, in vivo, ip, 20 mg/kg): no
Liver Necrosis (rat, in vivo, ip, 80 mg/kg): no

CN(Cc1cnc2nc(N)nc(N)c2n1)c1ccc(C(=O)N[C@@H](CCC(=O)O)C(=O)O)cc1 [methotrexate]
Score (histopathology liver necrosis severity score) (Sprague Dawley, rat, in vivo, ip, 5 mg/kg, 72 h): 1
Liver Toxicity Necrosis Classification (rat, in vivo): no
Liver Necrosis (rat, in vivo, ip, 5 mg/kg): no

C=CCN1CC[C@]23c4c5ccc(O)c4O[C@H]2C(=O)CC[C@@]3(O)[C@H]1C5 [naloxone]
Liver Toxicity Necrosis Classification (rat, in vivo): no
Score (histopathology liver necrosis severity score) (rat, in vivo, ip): 1
Liver Necrosis (rat, intraperitoneal, dose 180 mg/kg, 72 hours after treatment): no
Score (histopathology liver necrosis severity score) (rat, intraperitoneal, dose 180 mg/kg, 72 hours; 1 = not remarkable, 2 and higher increasing severity): 1
Liver Necrosis (rat, intraperitoneal, dose 45 ml/kg, 72 hours after treatment): no

COc1ccc(C[C@H](N)C(=O)N[C@H]2[C@@H](O)[C@H](n3cnc4c(N(C)C)ncnc43)O[C@@H]2CO)cc1 [puromycin]
Score (histopathology liver necrosis severity score) (Sprague Dawley, rat, in vivo, ip, 38 mg/kg, 72 h): 1
Score (histopathology liver necrosis severity score) (Sprague Dawley, rat, in vivo, ip, 150 mg/kg, 72 h): 1
Liver Toxicity Necrosis Classification (rat, in vivo): no
Liver Necrosis (rat, in vivo, ip, 38 mg/kg): no
Liver Necrosis (rat, in vivo, ip, 150 mg/kg): no

C=C[C@H]1C[N@@]2CC[C@H]1C[C@@H]2[C@@H](O)c1ccnc2ccc(OC)cc12 [quinidine]
Liver Necrosis (rat, intraperitoneal, dose 25 mg/kg, 72 hours after treatment): no
Score (histopathology liver necrosis severity score) (rat, intraperitoneal, dose 25 mg/kg, 72 hours; 1 = not remarkable, 2 and higher increasing severity): 1
Liver Necrosis (rat, intraperitoneal, dose 100 mg/kg, 72 hours after treatment): no
Score (histopathology liver necrosis severity score) (rat, intraperitoneal, dose 100 mg/kg, 72 hours; 1 = not remarkable, 2 and higher increasing severity): 1

Cn1c(=O)c2[nH]cnc2n(C)c1=O [theophylline]
Score (histopathology liver necrosis severity score) (Sprague Dawley, rat, in vivo, ip, 25 mg/kg, 72 h): 1
Score (histopathology liver necrosis severity score) (Sprague Dawley, rat, in vivo, ip, 100 mg/kg, 72 h): 1
Liver Toxicity Necrosis Classification (rat, in vivo): no
Liver Necrosis (rat, in vivo, ip, 25 mg/kg): no
Liver Necrosis (rat, in vivo, ip, 100 mg/kg): no

aflatoxin B1
Liver Necrosis (rat, in vivo, ip, 1 mg/kg): Yes
Score (histopathology liver necrosis severity score) (rat, in vivo, ip, 1 mg/kg): 8

carboxy methyl cellulose
Liver Necrosis (rat, in vivo, ip, 30 mg/kg): no
Score (histopathology liver necrosis severity score) (rat, in vivo, ip, 30 mg/kg): 1

gentamicin
Liver Toxicity Necrosis Classification (at 72 h; dose 38): no
Liver Toxicity Necrosis Classification (at 72 h; dose 150): no
Liver Toxicity Necrosis Classification (compound-dose group at 72 h, dose 38): no
Liver Toxicity Necrosis Classification (compound-dose group at 72 h, dose 150): no
Liver Toxicity Necrosis Classification (compound-dose group at 72 h; dose 38): no
Liver Toxicity Necrosis Classification (compound-dose group at 72 h; dose 150): no
Liver Toxicity Necrosis Classification (compound-dosegroup at 72 h; dose 38): no
Liver Necrosis (rat, intraperitoneal, dose 38 mg/kg, 72 hours after treatment): no
Score (histopathology liver necrosis severity score) (rat, intraperitoneal, dose 38 mg/kg, 72 hours; 1 = not remarkable, 2 and higher increasing severity): 1
Liver Necrosis (rat, intraperitoneal, dose 150 mg/kg, 72 hours after treatment): no
Score (histopathology liver necrosis severity score) (rat, intraperitoneal, dose 150 mg/kg, 72 hours; 1 = not remarkable, 2 and higher increasing severity): 1

lipopolysaccharide
Liver Toxicity Necrosis Classification (72 h, dose 8): yes
Liver Toxicity Necrosis Classification (72 h; dose 2): no
Liver Toxicity Necrosis Classification (compound-dose group at 72 h, dose 2): no
Liver Toxicity Necrosis Classification (compound-dose group at 72 h, dose 8): yes
Liver Toxicity Necrosis Classification (compound-dose group at 72 h; CCL4 1000, DMN 20, LPS 8): yes
Liver Toxicity Necrosis Classification (compound-dose group at 72 h; dose 2): no
Liver Toxicity Necrosis Classification (compound-dosegroup at 72 h; dose 2): no
Liver Toxicity Necrosis Classification (compound-dosegroup at 72 h; dose 8): yes
toxicity at the high dose (rat, high dose of Table 1, liver necrosis at 72 hours): produced toxicity
Liver Necrosis (rat, intraperitoneal, dose 2 mg/kg, 72 hours after treatment): no
Score (histopathology liver necrosis severity score) (rat, intraperitoneal, dose 2 mg/kg, 72 hours; 1 = not remarkable, 2 and higher increasing severity): 1
Liver Necrosis (rat, intraperitoneal, dose 8 mg/kg, 72 hours after treatment): Yes
Score (histopathology liver necrosis severity score) (rat, intraperitoneal, dose 8 mg/kg, 72 hours; 1 = not remarkable, 2 and higher increasing severity): 6
toxicity at the low dose (rat, low dose of Table 1, liver necrosis at 72 hours): not at the low dose

polyethylene glycol
Liver Necrosis (rat, in vivo, ip): no
